This passage reports EC50 results from patent US10233195B2, “Anti-fibrotic pyridinones” (InterMune, Inc., priority 2014, dated 2019).

Usually EC50 stands for the midpoint of the concentration-response curve.

The test deals with TGF-b induced Endothelin-1 production. Briefly: ET-1 assay: inhibitory effect on TGF-b induced endothelin-1 production. The class given is cell-based. Conditions: Homo sapiens, Fibroblast; fibroblasts, stimulant (TGFb, serum, LPA etc), ET-1 in media by ELISA, 4-parameter fit. How it is done: Assay of Inhibitory Effect on TGF-b Induced Endothelin-1 Production
Fibroblasts (primary human lung and dermal, HFL-1, 3T3 etc) are seeded in 96-well plates at ˜15000 cells/well and serum starved for 0-48 hours. After media exchange, compounds serially diluted in DMSO are added to the cells. After a brief incubation of ˜30 min, stimulants (TGFb, serum, LPA etc) are added followed by further incubation for 16-48 hours. Media is then harvested and stored frozen in plate format for later endothelin-1 (ET-1) determination by ELISA. Toxicity measurements are made using the ATPlite kit (Perkin-Elmer). ET-1 is quantified using an ELISA kit (R&D Systems). The amount of ET-1 produced in the assay wells are back-calculated using the ELISA standard. The ability of a compound to inhibit ET-1 production is typically analyzed by fitting dose-response curves to a 4-parameter logistic function to obtain an EC50 value. A measure of cytotoxicity (CC50) is likewise reported from the same experiment using the ATPlite data.
Compounds of some embodiments were prepared according to synthetic methods described herein and assay data obtained for EC50 against ET-1. The assay data obtained is presented in Table 2, in which A=less than 50 μM, B=greater than or equal to 50 μM and less than or equal to 200 μM; and C=greater than 200 μM.

`Cc1cc(=O)n(-c2ccc(F)cc2)cc1-c1ccc(OC(F)(F)F)cc1` [Compound 212] yielded an EC50 of 50 to 200 µM. Compound `CCCCOC(=O)n1cc(-c2ccc(=O)n(-c3ccccc3)c2)cn1` [Compound 74] registered an EC50 of 50 to 200 µM. With `Cc1cc(=O)n(-c2ccc(OC(F)(F)F)cc2)cc1-c1ccc(F)cc1` [Compound 213], the EC50 was more than 200 µM. With `Cc1cc(=O)n(-c2ccc(C(F)(F)F)cc2)cc1-c1ccc(F)cc1` [Compound 173], the EC50 was more than 200 µM. Consider `Cn1cc(-c2cn(-c3ccc(OC(F)(F)F)cc3)c(=O)cc2Oc2cc(Cl)cc(C#N)c2)cn1` [Compound 156], for which the EC50 is more than 200 µM. Take `Cc1cc(=O)n(-c2cccc(NC(N)=O)c2)cc1-c1cnn(C)c1` [Compound 628]: the EC50 was less than 50 µM. The same measure for `Cn1cc(-c2cn(-c3ccc(OC(F)(F)F)cc3)c(=O)cc2N2CCc3ccccc3C2)cn1` [Compound 129]: 50 to 200 µM; for `CCn1ccc2c(-c3cn[nH]c3)cn(-c3ccc(OC(F)(F)F)cc3)c(=O)c21` [Compound 593]: less than 50 µM; for `COc1cccc(-n2cc(C(C)=O)ccc2=O)c1` [Compound 14]: more than 200 µM.

The compound `O=c1c(-c2ccc(F)cc2)c(-c2ccc(OC(F)(F)F)cc2)c1=O` [Compound 666] came in with an EC50 of less than 50 µM. The same measure for `O=c1ncc(-c2ccc(F)cc2)cn1-c1ccccc1` [Compound 356]: 50 to 200 µM; for `Cc1cc(=O)n(-c2ccc(OC(F)(F)F)cc2)cc1-c1ccc2c(c1)OCC(=O)N2CCO` [Compound 566]: more than 200 µM. `Cc1cc(=O)n(-c2cccc(N)c2)cc1-c1ccc(F)cc1` [Compound 187]: the EC50 fell in the range of 50 to 200 µM.

Turning to `COc1cccc(-n2cc(-c3c(C)n[nH]c3C)ccc2=O)c1` [Compound 378], the EC50 lay within 50 to 200 µM.

In turn, `Cn1cc(-c2cn(-c3ccc(OC(F)(F)F)cc3)c(=O)cc2NCCc2ccccc2)cn1` [Compound 131] gave a 50% effective concentration (EC50) of more than 200 µM. As for `O=c1ccc(-c2ccc(F)cc2)cn1-c1ccccc1Cl` [Compound 291], the EC50 is more than 200 µM.

Regarding `COc1cc(-n2cc(-c3cn[nH]c3)c(C)cc2=O)cc(OC)c1OC` [Compound 220], the EC50 is more than 200 µM. In turn, `O=c1ccc(-c2ccc(F)cc2)cn1-c1cccc(C(F)(F)F)c1` [Compound 289] returned an EC50 of 50 to 200 µM. Take `O=C(NCc1ccccc1)c1cc(=O)n(-c2ccc(OC(F)(F)F)cc2)cc1-c1ccc(F)cc1` [Compound 118]: the concentration giving a half-maximal response (EC50) is more than 200 µM. In the case of `Cn1cc(-c2cn(-c3ccc(OC(F)(F)F)cc3)c(=O)cc2Oc2cccc(F)c2)cn1` [Compound 409], the EC50 is less than 50 µM. As to `O=c1ccc(Br)cn1-c1cccc(C(F)(F)F)c1` [Compound 268], the concentration for a half-maximal effect (EC50) is more than 200 µM.

Regarding `CCOc1ccc(-n2cc(-c3cnn(C)c3)c(NCc3cccnc3)cc2=O)c(C)c1` [Compound 701], the EC50 was less than 50 µM. `CNc1cc(=O)n(-c2ccc(OC(F)(F)F)cc2)cc1-c1ccc(F)cc1` [Compound 90] had a half-maximal effective concentration (EC50) of more than 200 µM.

Take `CCCC(=O)Nc1cc(=O)n(-c2ccc(OC(F)(F)F)cc2)cc1-c1ccc(F)cc1` [Compound 110]: the EC50 is more than 200 µM. Compound `CN1CCC(Oc2cc(=O)n(-c3ccc(OC(F)(F)F)cc3)cc2-c2ccc(F)cc2)CC1` [Compound 95] yielded an EC50 of less than 50 µM.

`O=c1c2c(c(-c3ccc(F)cc3)cn1-c1ccc(OC(F)(F)F)cc1)NCCC2` [Compound 45]: the EC50 was more than 200 µM.

The compound `Cc1cc(=O)n(-c2ccc3c(c2)OCO3)cc1-c1ccc(F)cc1` [Compound 183] displayed an EC50 of more than 200 µM. `Cn1cc(-c2cn(-c3ccc(F)cc3)c(=O)cc2Oc2ccccc2)cn1` [Compound 532] displayed an EC50 of less than 50 µM. `CC(=O)n1cc(-c2ccc(=O)n(-c3ccccc3)c2)cn1` [Compound 67] came in with an EC50 of more than 200 µM.

Regarding `COCCOc1ccc(-n2cc(-c3cn[nH]c3)c(C)cc2=O)cc1` [Compound 24], the EC50 is more than 200 µM.

For `CCOc1ccc(-n2cc(-c3cnn(C)c3)c(OCCOCCOC)cc2=O)c(C)c1` [Compound 697], the EC50 lay within 50 to 200 µM. On to `Cn1cc(-c2cn(-c3ccc(OC(F)(F)F)cc3)c(=O)c3c2CCN3C(=O)OC(C)(C)C)cn1` [Compound 690], for which the EC50 is less than 50 µM. `COCCOc1ccc(-n2cc(-c3ccc(F)cc3)c(C)cc2=O)cc1` [Compound 23]: the EC50 lay within 50 to 200 µM.

As to `Cn1cc(-c2cn(-c3ccc(OC(F)(F)F)cc3)c(=O)cc2NCc2c(Cl)cccc2Cl)cn1` [Compound 132], the concentration giving a half-maximal response (EC50) is more than 200 µM. Turning to `Cc1cc(=O)n(-c2ccc(OC(F)(F)F)cc2)cc1-c1nn[nH]n1` [Compound 253], the EC50 is more than 200 µM. Consider `Cc1ccccc1-n1cc(-c2cnn(C)c2)ccc1=O` [Compound 439], for which the EC50 is more than 200 µM. `CC(=O)Nc1cccc(-n2cc(Br)ccc2=O)c1` [Compound 271] returned a half-maximal effective concentration (EC50) of more than 200 µM. Consider `Cc1cc(=O)n(-c2cccc(C(F)(F)F)c2)cc1-c1ccc(F)cc1` [Compound 177], for which the EC50 is 50 to 200 µM. The compound `CCOc1ccc(-n2cc(-c3cnn(C)c3)c(N(C)Cc3ccccc3)cc2=O)c(C)c1` [Compound 705] returned an EC50 of less than 50 µM. For the compound `NS(=O)(=O)c1ccc(-c2ccc(=O)n(-c3cccc(C(F)(F)F)c3)c2)cc1` [Compound 329], the EC50 is more than 200 µM. `CCOc1ccc(-n2cc(-c3cn[nH]c3)c3ncccc3c2=O)c(C)c1` [Compound 580] showed a half-maximal effective concentration (EC50) of less than 50 µM. `Cc1cc(=O)n(-c2ccc(OC(F)(F)F)cc2)cc1-c1ccc2[nH]c(=O)oc2c1` [Compound 429] returned an EC50 of more than 200 µM. With `Cn1ccc2c(-c3cn[nH]c3)cn(-c3ccc(Cl)cc3)c(=O)c21` [Compound 598], the half-maximal effective concentration (EC50) is less than 50 µM. `Cc1cc(=O)n(-c2ccccc2C)cc1-c1ccc(F)cc1` [Compound 214] gave an EC50 of 50 to 200 µM. On to `Cc1cc(=O)n(-c2cccc(C(F)(F)F)c2)cc1-c1cnn(C)c1` [Compound 226], for which the EC50 is more than 200 µM. The same measure for `CCOc1ccc(-n2cc(Br)ccc2=O)c(C)c1` [Compound 273]: more than 200 µM; for `Cn1cc(-c2cn(-c3ccc(C#N)cc3)c(=O)c3nccnc23)cn1` [Compound 398]: more than 200 µM; for `CCOc1ccc(-n2cc(-c3ccc4ocnc4c3)c(C)cc2=O)c(C)c1` [Compound 420]: 50 to 200 µM.

In turn, `Cn1cc(-c2cn(-c3ccc(OC(F)(F)F)cc3)c(=O)cc2C(=O)O)cn1` [Compound 158] displayed an EC50 of more than 200 µM. For `Cn1cc(-c2cn(-c3ccc(OC(F)(F)F)cc3)c(=O)c3c2ccn3Cc2ccccc2)cn1` [Compound 596], the EC50 is less than 50 µM. In the case of `Cn1cc(-c2cn(-c3ccc(O)cc3)c(=O)cc2Oc2ccccc2)cn1` [Compound 545], the concentration for a half-maximal effect (EC50) was more than 200 µM. `COCCOc1cc(=O)n(-c2ccc(OC(F)(F)F)cc2)cc1-c1ccc(F)cc1` [Compound 96] showed an EC50 of more than 200 µM. For the compound `CC(=O)Nc1cc(=O)n(-c2ccc(OC(F)(F)F)cc2)cc1-c1ccc(F)cc1` [Compound 104], the EC50 is more than 200 µM. With `O=c1cc(OCc2ccccc2)c(-c2ccc(F)cc2)cn1-c1ccc(OC(F)(F)F)cc1` [Compound 91], the EC50 is more than 200 µM. For `C[C@@H]1CCC(=O)N(c2ccccc2)C1` [Compound 84], the half-maximal effective concentration (EC50) is more than 200 µM. The compound `CC(=O)c1ccc(=O)n(-c2ccccc2Cl)c1` [Compound 19] came in with an EC50 of 50 to 200 µM. Compound `CCn1cnc2c(-c3cn[nH]c3)cn(-c3ccc(OC(F)(F)F)cc3)c(=O)c21` [Compound 669] gave a concentration for a half-maximal effect (EC50) of less than 50 µM.

Turning to `Cc1cc(=O)n(-c2ccc(OC(F)(F)F)cc2C)cc1-c1cnn(C)c1` [Compound 442], the EC50 was more than 200 µM. On to `Cn1cc(-c2ccc(=O)n(-c3ccccc3)n2)cn1` [Compound 361], for which the EC50 was more than 200 µM.

On to `O=c1c2[nH]cnc2c(-c2cn[nH]c2)cn1-c1ccc(OC(F)(F)F)cc1` [Compound 672], for which the EC50 is less than 50 µM. With `Cc1cc(=O)n(-c2ccc(OC(F)(F)F)cc2)cc1C(F)(F)F` [Compound 368], the EC50 is more than 200 µM. The same measure for `CCOc1ccc(CNc2cc(=O)n(-c3ccc(OC(F)(F)F)cc3)cc2-c2cnn(C)c2)cc1` [Compound 530]: less than 50 µM. In the case of `O=c1c2cccnc2c(-c2ccc(F)cc2)cn1-c1ccc(OC(F)(F)F)cc1` [Compound 42], the half-maximal effective concentration (EC50) is more than 200 µM. As for `Cc1cc(=O)n(-c2cccc3c2OCO3)cc1-c1cnn(C)c1` [Compound 232], the figure is more than 200 µM. With `Cc1cc(=O)n(-c2ccc(OC(F)(F)F)cc2)cc1-c1ccc2c(c1)oc(=O)n2CCO` [Compound 558], the EC50 lay in the range of 50 to 200 µM. `CCOc1ccc(-n2cc(-c3ccc(F)cc3)ccc2=O)c(C)c1` [Compound 438] came in with an EC50 of more than 200 µM. Turning to `COc1cccc(-n2cc(-c3cn[nH]c3)ccc2=O)c1` [Compound 375], the EC50 is more than 200 µM. As for `CCCOC(=O)Nc1cc(=O)n(-c2ccc(OC(F)(F)F)cc2)cc1-c1ccc(F)cc1` [Compound 105], the figure is more than 200 µM; as for `Cc1cc(=O)n(-c2ccccc2F)cc1-c1cnn(C)c1` [Compound 230], more than 200 µM. `O=c1ccc(-c2cn[nH]c2)cn1-c1ccc(Cl)cc1` [Compound 371]: the EC50 was more than 200 µM. Consider `O=C(Nc1cc(=O)n(-c2ccc(OC(F)(F)F)cc2)cc1-c1ccc(F)cc1)Oc1ccccc1` [Compound 113], for which the EC50 was more than 200 µM.
